Data: patent US20240287080A1 (IDEAYA Biosciences Inc., priority 2021, published 2024)

molecular target: T1, Pol theta (1-899) (Homo sapiens, UniProt O75417); assay: Pol theta ATPase activity, NADH oxidation-coupled enzymatic assay (ATPase NADH coupling: Standard Screening: hPolQ); type: biochemical; conditions: Pol theta (1-899) 5 nM, NADH oxidation-coupled ATPase assay; compounds of Table 3
T1 construct: Pol theta (1-899) (5 nM) in assay buffer
Method: The ability of the compounds of Formula (I) or Table 1 to inhibit ATPase activity of Pol theta (1-899) was determined using the assay described below. Pol Theta ATPase activity was determined by measuring the rate of ATP turn over in a NADH oxidation-coupled enzymatic assay. 10-point dilution series of compounds were used in a 384 well format for the inhibition assays. Pol theta (1-899) (5 nM) in assay buffer (20 mM Tris HCl (pH 7.80), 80 mM KCl, 10 mM MgCl2, 1 mM DTT, 0.01% BSA, 0.01% Tween, 5% glycerol) was transferred to the test wells (20 μL), except the low control wells (20 μL of assay buffer was added to the low control wells). The plate was then incubated at room temperature for 15 min. An equal volume (20 μL) of 100 μM ATP, 300 nM […] (single-stranded DNA (ssDNA) containing 50 thymine bases), 300 μM NADH, 6 mM PEP, 10 U/mL lactate dehydrogenase and 20 U/mL pyruvate kinase in assay buffer was added to all the test wells. The plate was then centrifuged at 1000 rpm for 1 min. The reaction was monitored for 60 min by measuring absorbance (λ=340 nm) in a Tecan Spark multimode plate reader every minute. The high control (DMSO with enzyme) with low absorbance intensity represents no inhibition of ATPase reaction while the low control (DMSO with buffer) with high absorbance intensity represents full inhibition of ATPase activity. Slope of the reaction progress curves were used to calculate the rate of ATP hydrolysis. The rates were used to determine the percent inhibition using a four-parameter inhibition model to generate IC50, Hill slope and max inhibition.

T1 sequence (O75417 1-899): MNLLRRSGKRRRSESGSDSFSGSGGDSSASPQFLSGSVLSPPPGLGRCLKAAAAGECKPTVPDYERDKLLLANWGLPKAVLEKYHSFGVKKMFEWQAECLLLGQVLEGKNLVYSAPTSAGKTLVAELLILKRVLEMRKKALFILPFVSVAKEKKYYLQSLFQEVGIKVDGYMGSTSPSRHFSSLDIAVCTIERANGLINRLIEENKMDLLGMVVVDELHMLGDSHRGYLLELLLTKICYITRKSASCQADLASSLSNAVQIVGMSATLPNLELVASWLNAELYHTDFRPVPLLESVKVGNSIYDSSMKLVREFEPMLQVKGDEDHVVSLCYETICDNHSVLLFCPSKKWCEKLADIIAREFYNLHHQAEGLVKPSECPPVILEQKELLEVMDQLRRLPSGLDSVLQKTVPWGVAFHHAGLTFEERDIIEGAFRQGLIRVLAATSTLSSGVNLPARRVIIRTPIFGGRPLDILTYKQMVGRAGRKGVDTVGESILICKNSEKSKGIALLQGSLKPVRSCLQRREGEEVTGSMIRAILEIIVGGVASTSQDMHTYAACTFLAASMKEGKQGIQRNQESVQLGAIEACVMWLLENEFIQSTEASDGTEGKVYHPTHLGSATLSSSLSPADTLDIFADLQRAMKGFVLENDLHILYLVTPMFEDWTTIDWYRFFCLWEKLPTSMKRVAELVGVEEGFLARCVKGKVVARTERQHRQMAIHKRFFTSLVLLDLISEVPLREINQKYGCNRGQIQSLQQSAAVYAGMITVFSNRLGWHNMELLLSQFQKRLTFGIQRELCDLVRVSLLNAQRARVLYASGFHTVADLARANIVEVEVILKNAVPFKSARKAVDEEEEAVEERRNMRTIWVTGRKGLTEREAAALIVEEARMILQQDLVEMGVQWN

Question: `COc1ccc(-c2cc(C)ncc2C(=O)Nc2nnc(OC)s2)cn1` [Example 407, 6-methoxy-N-(5-methoxy-1,3,4-thiadiazol-2-yl)-6′-methyl-[3,4′-bipyridine]-3′-carboxamide] was tested. Which IC50 did it give?
Answer: 1000 to 10000 nM

Question: With `COc1cnc(C)c(F)c1-c1cc(C)ncc1C(=O)Nc1nnc(O[C@@H]2CO[C@H]3OCC[C@H]32)s1` (single isomer, unassigned) [Example 304] as the compound, how does the IC50 read?
Answer: ≤ 200 nM

Question: `COc1cnc(Cl)cc1-c1cc(C)ncc1C(=O)Nc1nnc(O[C@@H]2CO[C@H]3OCC[C@H]32)s1` (single isomer, unassigned) [Example 305] was tested. Which IC50 did it give?
Answer: ≤ 200 nM

Question: Which IC50 does the source give for `COc1nnc(NC(=O)c2cnc(C)cc2-c2ccc(C#N)nc2C)s1` [Example 434, 6-cyano-N-(5-methoxy-1,3,4-thiadiazol-2-yl)-2,6′-dimethyl-[3,4′-bipyridine]-3′-carboxamide] here?
Answer: 1000 to 10000 nM

Question: `COc1nnc(NC(=O)c2cnc(C)cc2-c2ccsc2)s1` [Example 388, N-(5-methoxy-1,3,4-thiadiazol-2-yl)-6-methyl-4-(thiophen-3-yl)nicotinamide] was tested. Which IC50 did it give?
Answer: 1000 to 10000 nM

Question: For `CNC(=O)c1cccc(-c2cc(C)ncc2C(=O)Nc2nnc(OC)s2)c1` [Example 343, N-(5-methoxy-1,3,4-thiadiazol-2-yl)-6-methyl-4-[3-(methylcarbamoyl)phenyl]pyridine-3-carboxamide], which IC50 is on record?
Answer: 1000 to 10000 nM

Question: `COc1nnc(NC(=O)c2cnc(C)cc2-c2ccc3ccn(C)c3c2)s1` [Example 480, N-(5-methoxy-1,3,4-thiadiazol-2-yl)-6-methyl-4-(1-methyl-1H-indol-6-yl)pyridine-3-carboxamide] was tested. Which IC50 did it give?
Answer: 1000 to 10000 nM

Question: `COc1nnc(NC(=O)c2cnc(C)cc2-c2cncc(C(N)=O)c2)s1` [Example 340, N3′-(5-methoxy-1,3,4-thiadiazol-2-yl)-6′-methyl-[3,4′-bipyridine]-3′,5-dicarboxamide] was tested. Which IC50 did it give?
Answer: 1000 to 10000 nM

Question: How did the IC50 turn out when `COc1nnc(NC(=O)c2cnc(C)cc2-c2ccccc2)s1` [Example 329, N-(5-methoxy-1,3,4-thiadiazol-2-yl)-6-methyl-4-phenylpyridine-3-carboxamide] was run?
Answer: 1000 to 10000 nM

Question: For `COc1cnc(Cl)cc1-c1cc(C)ncc1C(=O)Nc1nnc(OC2([C@H]3CCOC3)CC2)s1` (single isomer, unassigned) [Example 297], which IC50 is on record?
Answer: ≤ 200 nM

Question: How did the IC50 turn out when `COc1cnc(Cl)cc1-c1cc(C)ncc1C(=O)Nc1nnc(O[C@H]2CCCN([C@@H]3CCOC3)C2)s1` [Example 309, 2′-chloro-5′-methoxy-6-methyl-N-(5-(((S)-1-((R)-tetrahydrofuran-3-yl)piperidin-3-yl)oxy)-1,3,4-thiadiazol-2-yl)-[4,4′-bipyridine]-3-carboxamide] was run?
Answer: ≤ 200 nM

Question: `COc1cnc(Cl)cc1-c1cc(C)ncc1C(=O)Nc1nnc(OC2CCCN(C3CCOC3)C2)s1` (centres unmarked) [Example 247, 2′-chloro-5′-methoxy-6-methyl-N-(5-((1-(tetrahydrofuran-3-yl)piperidin-3-yl)oxy)-1,3,4-thiadiazol-2-yl)-[4,4′-bipyridine]-3-carboxamide] was tested. Which IC50 did it give?
Answer: ≤ 200 nM

same assay, conditions: Table 4; Pol theta (1-899) 5 nM, ATP, dT50 ssDNA

Question: For `CCc1cc(-c2cc(C)ncc2C(=O)Nc2nnc(OC)s2)c(OC)cn1` [Example 44, 2′-ethyl-5′-methoxy-N-(5-methoxy-1,3,4-thiadiazol-2-yl)-6-methyl-(4,4′-bipyridine)-3-carboxamide], which IC50 is on record?
Answer: ≤ 200 nM

Question: Which IC50 does the source give for `COc1nnc(NC(=O)c2cnc(C)cc2-c2c(C)n[nH]c2C)s1` [Example 40, 4-(3,5-dimethyl-1H-pyrazol-4-yl)-N-(5-methoxy-1,3,4-thiadiazol-2-yl)-6-methylnicotinamide] here?
Answer: 1000 to 10000 nM

Question: `COc1cnc(Cl)cc1-c1cc(C)ncc1C(=O)Nc1nnc(O[C@H]2CCOC2)s1` [Example 22, (S)-2′-chloro-5′-methoxy-6-methyl-N-(5-((tetrahydrofuran-3-yl)oxy)-1,3,4-thiadiazol-2-yl)-(4,4′-bipyridine)-3-carboxamide] was tested. Which IC50 did it give?
Answer: ≤ 200 nM

Question: How did the IC50 turn out when `Cc1cc(-c2cc(Cl)ncc2OC(F)F)c(C(=O)Nc2nnc(OC3COC3)s2)cn1` [Example 62, 2′-chloro-5′-(difluoromethoxy)-6-methyl-N-(5-(oxetan-3-yloxy)-1,3,4-thiadiazol-2-yl)-(4,4′-bipyridine)-3-carboxamide] was run?
Answer: ≤ 200 nM

same assay, conditions: Table 5; Pol theta (1-899) 5 nM, ATP, dT50 ssDNA

Question: `COc1cnc(Cl)cc1-c1cc(C)ncc1C(=O)Nc1nnc(O[C@@H]2CCC[C@@H](O)C2)s1` (single isomer, unassigned) [Example 162] was tested. Which IC50 did it give?
Answer: ≤ 200 nM

Question: Which IC50 does the source give for `COc1cnc(C)c(F)c1-c1cc(C)ncc1C(=O)Nc1nnc(O[C@H]2COC3(CC3)C2)s1` (single isomer, unassigned) [Example 208] here?
Answer: ≤ 200 nM

Question: For `COc1cnc(Cl)c(F)c1-c1cc(C)ncc1C(=O)Nc1nnc(O[C@H]2CCO[C@H]2C)s1` (single isomer, unassigned) [Example 164], which IC50 is on record?
Answer: ≤ 200 nM

Question: How did the IC50 turn out when `COc1cnc(Cl)cc1-c1cc(C)ncc1C(=O)Nc1nnc(O[C@H]2CC[C@@](C)(O)CC2)s1` (single isomer, unassigned) [Example 141, 2′-chloro-N-(5-(((1s,4s)-4-hydroxy-4-methylcyclohexyl)oxy)-1,3,4-thiadiazol-2-yl)-5′-methoxy-6-methyl-(4,4′-bipyridine)-3-carboxamide] was run?
Answer: ≤ 200 nM

Question: With `COc1nnc(NC(=O)c2cnc(C)cc2-c2ccnc(Cl)c2)s1` [Example 100, 2′-chloro-N-(5-methoxy-1,3,4-thiadiazol-2-yl)-6-methyl-(4,4′-bipyridine)-3-carboxamide] as the compound, how does the IC50 read?
Answer: 200 to 500 nM

Question: With `COc1cnc(Cl)c(F)c1-c1cc(C)ncc1C(=O)Nc1nnc(O[C@H]2CCC[C@H](O)C2)s1` (single isomer, unassigned) [Example 156] as the compound, how does the IC50 read?
Answer: ≤ 200 nM

Question: Which IC50 does the source give for `COc1cnc(Cl)cc1-c1cc(C)ncc1C(=O)Nc1nnc(O[C@@H]2C[C@H]3CC[C@@H]2O3)s1` (single isomer, unassigned) [Example 216] here?
Answer: ≤ 200 nM

Question: With `COc1cnc(Cl)cc1-c1cc(COC2CC2)ncc1C(=O)Nc1nnc(O[C@@H]2CCOC2)s1` [Example 214, (R)-2′-chloro-6-(cyclopropoxymethyl)-5′-methoxy-N-(5-((tetrahydrofuran-3-yl)oxy)-1,3,4-thiadiazol-2-yl)-(4,4′-bipyridine)-3-carboxamide] as the compound, how does the IC50 read?
Answer: ≤ 200 nM

Question: `COc1cnc(Cl)cc1-c1cc(C)ncc1C(=O)Nc1nnc(OC2CCC3(CCCO3)CC2)s1` (single isomer, unassigned) [Example 173, N-(5-(((5s,8r)-1-oxaspiro(4.5)decan-8-yl)oxy)-1,3,4-thiadiazol-2-yl)-2′-chloro-5′-methoxy-6-methyl-(4,4′-bipyridine)-3-carboxamide] was tested. Which IC50 did it give?
Answer: ≤ 200 nM

Question: Which IC50 does the source give for `COc1nnc(NC(=O)c2cnc(C)cc2-c2ccncc2OC)s1` [Example 101, 3′-methoxy-N-(5-methoxy-1,3,4-thiadiazol-2-yl)-6-methyl-(4,4′-bipyridine)-3-carboxamide] here?
Answer: 1000 to 10000 nM

Question: For `COc1cnc(Cl)cc1-c1cc(C)ncc1C(=O)Nc1nnc(O[C@@H]2CCC[C@@H](OC)C2)s1` (single isomer, unassigned) [Example 148], which IC50 is on record?
Answer: ≤ 200 nM

Question: Which IC50 does the source give for `COc1cnc(Br)cc1-c1cc(C)ncc1C(=O)Nc1nnc(O[C@H]2COC3(CC3)C2)s1` (single isomer, unassigned) [Example 227] here?
Answer: ≤ 200 nM

Question: `COc1cnc(Cl)cc1-c1cc(OC2CC2)ncc1C(=O)Nc1nnc(O[C@@H]2CCOC2)s1` [Example 193, (R)-2′-chloro-6-cyclopropoxy-5′-methoxy-N-(5-((tetrahydrofuran-3-yl)oxy)-1,3,4-thiadiazol-2-yl)-(4,4′-bipyridine)-3-carboxamide] was tested. Which IC50 did it give?
Answer: 500 to 1000 nM
